Measured values taken from patent US8785600B2, “Anti-GCC antibody molecules and related compositions and methods” (Millennium Pharmaceuticals, Inc., priority 2009, dated 2014).
Square brackets hold non-standard residues; d marks the D form. Peptide text beside a SMILES is read from it. * marks the point of attachment. Dolaproine = CO[C@@H]([C@@H]1CCCN1)[C@@H](C)C(=O)O; Hexanoyl(6-maleimido) = O=C1C=CC(=O)N1CCCCCC(=O)*; Dil = CC[C@H](C)[C@H](NC)[C@@H](CC(=O)O)OC; X1 = C[C@@H](N*)[C@@H](O)c1ccccc1; NMeV = CN[C@H](C(=O)O)C(C)C

Legend:
[1] = tested on: 293-GCC#2 tumors; experiment: PD study: phosphohistone H3 positive tumor cells after single iv dose; assay type: in vivo, mice; details: 75 or 150 ug/kg toxin
Method: An alternative tumor model used 293-GCC#2 cells. A PD study for 5F9 ADCs in 293-GCC#2 tumor bearing mice was performed. Mice were dosed with single doses of 5F9vcMMAF at 75 ug/kg or 150 ug/kg and serum was taken at timepoints from 1 hr through 4 days for PD analysis of phosphohistone H3 to test antimitotic effects of the toxin on tumor cells. Phospho-histone H3 was detected by antibody (Upstate Biotechnology, now Millipore, Billerica, Mass.) staining of paraffin embedded sections of tumors.
Similar studies measured the phosphohistone levels in 293-GCC#2 tumor-bearing mice treated with 5F9vcMMAF, 5F9-SPDB-DM4 and 5F9-SMCC-DM1. Mice were dosed with single doses at 150 ug/kg and serum was taken at timepoints from 1 hr through 21 days for PK analysis of both total antibody and toxin-conjugated antibody. The percentage of phosphohistone H3 positive cells in 293-GCC#2 tumors increased in response to all three ADCS: 5F9vcMMAF, 5F9-SMCC-DM1 and 5F9-SPDB-DM4. Maximal phosphohistone H3 levels were 3- to 5-fold increased over baseline, with peaks at 24 hours post-injection.

[2] = tested on: 293-GCC#2 tumors; experiment: Efficacy study with 5F9vcMMAF and 5F9-DMx in 293-GCC#2 s.c. tumors; assay type: in vivo; details: 293-GCC#2 bearing SCID mice, 75 and 150 ug/kg toxin, q14d schedule
Method: 5F9-SPDB-DM4, 5F9-SMCC-DM1 and 5F9vcMMAF were tested for efficacy in the 293-GCC#2 tumor model at two doses (75 μg/kg and 150 μg/kg toxin), on a q14d×5 schedule. Specifically, this study included vehicle-treated control, Sc209-DM1 (150 μg/kg DM1 eq), Sc209-DM4 (150 μg/kg DM4 eq), Sc209-vcMMAF (150 μg/kg MMAF eq), 5F9-DM1 (150 μg/kg DM1 eq), 5F9-DM1 (75 μg/kg DM1 eq), 5F9-DM4 (150 μg/kg DM4 eg), 5F9-DM4 (75 μg/kg DM4 eq), 5F9-vcMMAF (150 μg/kg MMAF eq), and 5F9-vcMMAF (75 μg/kg MMAF eq). Taconic females mice bearing 293-GCC#2 cells (10 mice per group) were used.
FIG. 1 depicts tumor growth in 293-GCC#2 bearing SCID mice treated with 5F9vc-MMAF, -DM1, and -DM4 on a q14d schedule. […] Therefore at these doses and schedules, 5F9-SPDB-DM4 had the greatest efficacious differential from its control conjugate.
5F9-SPDB-DM4 and 5F9-SMCC-DM1 were tested for efficacy in the 293-GCC#2 tumor model at two doses (75 ug/kg and 150 ug/kg toxin) on a q7d×5 schedule. Specifically, this study included vehicle-treated control, 5F9 alone (15 mg/kg), DM1 (300 μg/kg), DM4 (300 μg/kg), Sc209-DM1 (150 μg/kg DM1 eq), Sc209-DM4 (150 μg/kg DM4 eq), Sc209-vcMMAF (150 μg/kg MMAF eq), 5F9-DM1 (150 μg/kg DM1 eq), 5F9-DM1 (75 μg/kg DM1 eq), 5F9-DM4 (150 μg/kg DM4 eq), and 5F9-DM4 (75 μg/kg DM4 eq). Taconic females mice bearing 293-GCC#2 cells (10 mice per group) were used.

[3] = tested on: 293 GCC#2 cells; assay type: cell-based, human; details: 293 cell model (293 GCC#2 vs control cells / 209 ADCs)
[4] = tested on: HT29 GCC#5 cells; assay type: cell-based, human; details: HT29 cell model
[5] = tested on: HT29-GCC#5 tumors; experiment: Pilot efficacy studies in HT29-GCC#5 s.c. tumors; assay type: in vivo, mice; details: 150 μg/kg on a q3d×5 schedule
Method: Studies were performed to determine efficacious conjugates and dosage regimens in mice bearing HT29-GCC#5 tumors. Mice were dosed with single or multiple doses. These studies determined that there was toxicity at too frequent dosing at higher levels of toxin conjugate (e.g., 150 μg/kg 5F9vcMMAF on a q3d×5 schedule). Another study determined that q14d×5 schedule was too infrequent in this model to allow some toxin conjugates to show significant efficacy vs. controls.

[6] = tested on: 293 GCC#2 tumors; experiment: Efficacy study with auristatin conjugates in 293 GCC#2 tumors; assay type: in vivo, SCID mice; parameters: TGI (tumor growth inhibition) / TGD (tumor growth delay): unit not given here
Method: 293 GCC#2 tumor-bearing SCID mice were treated with 5F9 conjugates with vc MMAE, vcMMAF or mcMMAF at three doses in comparison with 209 conjugates of these toxins or with free toxins or vehicle control. Doses were administered iv on a q7d×4 schedule. Tumors were harvested at days 3, 7, 10, 13 and 17. […] Table 18 provides a summary of the results (TGI=tumor growth inhibition, T/C=treatment/control, TGD=tumor growth delay, CR/PR=complete response/partial response; p value=measure to judge statistical significance, NS=not significant).
All three of these ADCs were efficacious in the 293 GCC#2 model on a q7d schedule.

[7] = tested on: PHTX-9c primary human colon tumor xenograft; experiment: Antitumor activity in PHTX-9c primary human colon tumor xenograft (Study A and Study B); assay type: in vivo, CB-17 SCID mice
Method: Female CB-17 SCID mice (eight weeks old) were inoculated subcutaneously (SC) into the flank with PHTX-9c tumor fragments (2 mm×2 mm). Tumor growth was monitored twice per week using vernier calipers and the mean tumor volume was calculated using the formula (0.5×[length×width^2]). When the mean tumor volume reached approximately 150 mm^3 (Study A) or 160 mm^3 (Study B), animals were randomized into treatment groups (n=10/group for Study A and n=9/group for Study B).
Doses were administered on Days 1, 8, and 15 for the QW schedule and Days 1, 4, 8, 11, 15, and 18 for the BIW schedule. […] The equivalent dose of linker+MMAE is 4% of the 5F9-vcMMAE dose. These calculations are based on a mean 3.9 MMAE molecules per antibody and a free antibody molecular weight of 150 kD. Actual antibody molecular weight will vary slightly due to degree of glycosylation.
Tumor volume and body weight were measured twice weekly and were continued beyond the treatment period to measure regrowth kinetics, as evidenced by tumor growth delay (TGD). Tumor volume measurements were continued until tumor volume reached 10% of the body weight in a single mouse within a treatment group, at which time the group was terminated. The percentage of tumor growth inhibition (TGI) ([mean tumor volume of the control group−mean tumor volume of a treated group]/mean tumor volume of the control group; a T/C ratio) was determined on Day 20. The T/C ratios across a treatment group were compared to the T/C ratios of the control group using a two-tailed Welch's t-test.
The differences in the tumor growth trends over time between pairs of treatment groups were assessed using linear mixed effects regression models. These models account for the fact that each animal was measured at multiple time points. A separate model was fit for each comparison, and the areas under the curve (AUC) for each treatment group were calculated using the predicted values from the model. The percent decrease in AUC (dAUC) relative to the reference group was then calculated.

[8] = tested on: CT26 hGCC/luc #32 cells; experiment: Pilot efficacy study with naked antibody in CT26 hGCC/luc #32 disseminated model; details: 40 mg/kg

Q: Which “Percentage of phosphohistone H3 positive cells in 293-GCC#2 tumors” value [1] does the source give for “5F9-SMCC-DM1: 5F9 conjugated to DM1 using SMCC heterobifunctional crosslinker” here?
A: increased

Q: And the “Tumor growth (efficacy)” value [2]?
A: efficacious, however less so than 5F9-SPDB-DM4 at 150 ug/kg

Q: With “5F9-vcMMAF: 5F9 anti-GCC antibody molecule conjugated with mc-vc-MMAF” as the compound, how does the “Target enhanced cell kill” value [3] read?
A: target enhanced cell kill

Q: What about the “Target enhanced cell kill” value [4] of the same compound?
A: target enhanced cell kill

Q: What about the Toxicity [5] of the same compound?
A: toxicity

Q: And the “Percentage of phosphohistone H3 positive cells in 293-GCC#2 tumors” value [1]?
A: increased

Q: What about the “Tumor growth (efficacy)” value [2] of the same compound?
A: the most efficacious

Q: And the “T/C (treatment/control)” value ([6]; 37.5 μg/kg iv q7d×4)?
A: 0.35

Q: What about the “TGD (tumor growth delay)” value ([6]; 37.5 μg/kg iv q7d×4) of the same compound?
A: 7.1

Q: What about the “TGI (tumor growth inhibition)” value ([6]; 37.5 μg/kg iv q7d×4) of the same compound?
A: 65.2

Q: What about the “T/C (treatment/control)” value ([6]; 75 μg/kg iv q7d×4) of the same compound?
A: 0.12

Q: What about the “TGI (tumor growth inhibition)” value ([6]; 75 μg/kg iv q7d×4) of the same compound?
A: 88.5

Q: What about the “T/C (treatment/control)” value ([6]; 150 μg/kg iv q7d×4) of the same compound?
A: 0.03

Q: What about the “TGI (tumor growth inhibition)” value ([6]; 150 μg/kg iv q7d×4) of the same compound?
A: 97

Q: And the “Tumor growth inhibition (efficacy)” value ([6]; 293 GCC#2 model, iv, q7d×4 schedule)?
A: more potent than 5F9-vcMMAE

Q: Which “CR/PR (complete response/partial response)” value ([6]; 150 μg/kg iv q7d×4) does the source give for `CC[C@H](C)[C@@H]([C@@H](CC(=O)N1CCC[C@H]1[C@H](OC)[C@@H](C)C(=O)N[C@@H](Cc1ccccc1)C(=O)O)OC)N(C)C(=O)[C@@H](NC(=O)[C@H](C(C)C)N(C)C(=O)CCCCCN1C(=O)C=CC1=O)C(C)C` [Free mcMMAF] ({Hexanoyl(6-maleimido)}-[NMeV]V[Dil][Dolaproine]F-OH) here?
A: 0

Q: And the “T/C (treatment/control)” value ([6]; 150 μg/kg iv q7d×4)?
A: 1.03

Q: And the “TGD (tumor growth delay)” value ([6]; 150 μg/kg iv q7d×4)?
A: −1.3

Q: And the “TGI (tumor growth inhibition)” value ([6]; 150 μg/kg iv q7d×4)?
A: −3.4

Q: Which results are given for `CC[C@H](C)[C@@H]([C@@H](CC(=O)N1CCC[C@H]1[C@H](OC)[C@@H](C)C(=O)N[C@H](C)[C@@H](O)c1ccccc1)OC)N(C)C(=O)[C@@H](NC(=O)[C@@H](NC)C(C)C)C(C)C` [Free MMAE] (H-[NMeV]V[Dil][Dolaproine]-X1)?
A: CR/PR (complete response/partial response) ([6]; 300 μg/kg iv q7d×4): 0; T/C (treatment/control) ([6]; 300 μg/kg iv q7d×4): 0.64; TGD (tumor growth delay) ([6]; 300 μg/kg iv q7d×4): 2; TGI (tumor growth inhibition) ([6]; 300 μg/kg iv q7d×4): 35.6

Q: Which TGI ([7]; 0.075 mg/kg IV QW) does the source give for `CC[C@H](C)[C@@H]([C@@H](CC(=O)N1CCC[C@H]1[C@H](OC)[C@@H](C)C(=O)N[C@H](C)[C@@H](O)c1ccccc1)OC)N(C)C(=O)[C@@H](NC(=O)[C@@H](NC)C(C)C)C(C)C` [MMAE, monomethyl auristatin E] (H-[NMeV]V[Dil][Dolaproine]-X1) here?
A: no tumor growth inhibition

Q: And the TGI ([7]; 0.135 mg/kg IV QW)?
A: no tumor growth inhibition

Q: What about the TGI ([7]; 0.15 mg/kg IV QW) of the same compound?
A: no tumor growth inhibition

Q: And the TGI ([7]; Study A, 0.075 mg/kg IV QW × 3 doses, Day 20)?
A: 5.0 (p > 0.05) %

Q: And the TGI ([7]; Study A, 0.15 mg/kg IV QW × 3 doses, Day 20)?
A: 11.1 (p > 0.05) %

Q: What about the TGI ([7]; Study B, 0.135 mg/kg IV QW × 3 doses, determined on Day 20) of the same compound?
A: 2.2 (p > 0.05) %

Q: What does the source list for “sc209: human IgG1 monoclonal antibody raised against an unrelated target, with no reactivity to GCC; negative control [reference compound]”?
A: T/C compared to 0.9% NaCl group [8]: 0.64; Lung weight, T test P vs. vehicle ([8]; end of study): 0.4

Q: How did the “T/C (treatment/control)” value ([6]; 75 μg/kg iv q7d×4) turn out when “5F9-vcMMAE: 5F9 mAb conjugated to MMAE through the vc (Val-Cit) linker; average drug loading about 3.6” was run?
A: 0.45

Q: What about the “TGD (tumor growth delay)” value ([6]; 75 μg/kg iv q7d×4) of the same compound?
A: 4.4

Q: What about the “TGI (tumor growth inhibition)” value ([6]; 75 μg/kg iv q7d×4) of the same compound?
A: 54.5

Q: And the “T/C (treatment/control)” value ([6]; 150 μg/kg iv q7d×4)?
A: 0.17

Q: And the “TGI (tumor growth inhibition)” value ([6]; 150 μg/kg iv q7d×4)?
A: 83.5

Q: What about the “T/C (treatment/control)” value ([6]; 300 μg/kg iv q7d×4) of the same compound?
A: 0.03

Q: What about the “TGI (tumor growth inhibition)” value ([6]; 300 μg/kg iv q7d×4) of the same compound?
A: 96.9
